# From a melting point compilation (Tetko et al.; mined from patent text by program, amines drawn as free bases though some values may be those of a salt)
row,SMILES,melting point
1,O=C(NCC(=O)C(F)(F)F)c1cnc(OCC(F)(F)F)c(-c2ccc(Cl)c(Cl)c2)c1,122 to 124 °C
2,CCN1C(=O)CC(C)(C)c2ccc(C#N)cc21,120 to 121 °C
3,CCCCCn1cc(CCCC)n(Cc2ccc(-c3ccccc3-c3nnn[nH]3)nc2)c1=O,162 to 164 °C
4,CCNc1cccc2c(S(=O)(=O)Nc3cnc(Br)cn3)cccc12,220 to 222 °C
5,CCCC1=C(C#N)C(c2cccc(C#N)c2Cl)c2c[nH]nc2N1 (stereo not drawn),> 250 °C
6,CNc1nc(-c2cccc(NC(=O)c3ccc4c(c3)OCO4)c2)c2cc(OC)c(OC)cc2n1,205 to 207 °C
7,Cc1cc(C)c(Nc2nc(C)ccc2S(=O)(=O)c2ccc(OCc3cc(Cl)nc(Cl)c3)cc2)c(C)c1,192 to 201 °C
8,Fc1ccccc1COc1nn(Cc2ccccc2F)c2ncccc12,57 to 58 °C
9,Cc1nnc2n1-c1ccc(C(=O)O)cc1C(c1ccccc1Cl)=NC2,169 to 173 °C
10,FC(F)(F)c1cccc2c1Sc1ccccc1NC2=S,265 to 267 °C
11,O=C1Cc2ccccc2SN1,175 °C
12,COc1ccc(C(=O)N2CCN(c3c(C)c(C)c4c(c3C)C(c3ccc(C)cc3)C(C)(C)O4)CC2)cc1 (stereo not drawn),163 to 165 °C
13,COc1c(N)cc(C(=O)O)cc1S(N)(=O)=O,210 °C
14,O=C(O)CCc1oc(N2CCCC2)nc1-c1ccc(Cl)cc1,199 to 200 °C
15,COc1cc2c(cc1OCc1ccccc1)CCCNC2=O,192 to 193 °C
16,Cc1cc(=O)n2c3c(cc(C(O)(C(F)(F)F)C(F)(F)F)cc13)CCCC2,169 to 171 °C
17,O=Cc1ccc(OCC(F)(F)F)c([N+](=O)[O-])c1,126 to 127 °C
18,CC(=O)OCC1=C(C(=O)OC(c2ccccc2)c2ccccc2)N2C(=O)C(NC(=O)Cc3csc(-c4ncccc4O)n3)C2SC1 (stereo not drawn),176 to 178 °C
19,O=C(CCCCCl)c1c[nH]c2ccccc12,165 to 167 °C
20,Cn1nc(-c2cc([N+](=O)[O-])c(Cl)cc2Cl)cc1OC(F)F,134 to 137 °C
21,COCON1C(=O)C(=C/c2ccccc2)/C(=C\c2cc(OC)c(OC)c(OC)c2)C1=O,175 to 177 °C
22,COC(=O)C1Oc2ccc(Cl)cc2C(C)(c2ccccc2)O1 (stereo not drawn),114 to 115 °C
23,CN1CCc2ccccc21,88 to 90 °C
24,C=Cc1ccc(C(=O)OC)[nH]1,91 to 93 °C

row,SMILES,melting point
1,Cc1nn(C)c(/C(OC(=O)C(C)(C)C)=C(\C#N)c2ccc(C(C)(C)C)cc2)c1C,110 °C
2,COC(=O)CCc1cc2cc(Cl)ccc2n1S(=O)(=O)c1ccc(C#N)cc1,155 to 159 °C
3,COC(=O)C[C@H]1CC[C@H](n2nc(-c3c(-c4ccccc4)nn4ccccc34)ccc2=O)C1 (relative stereo),105 to 107 °C
4,CCN(CC)C(=O)c1ccc(-c2nc(=O)c3ccccc3s2)nc1,193 °C
5,CN1C(=O)OCCc2cc(Nc3ncc(Cl)c(Nc4c(F)cccc4OCCO)n3)ccc21,199 to 201 °C
6,N#CCC(=O)c1ccc[nH]1,79 to 81 °C
7,COCc1c(C(=O)OC(C)C)ncc2[nH]c3cccc(Oc4ccccn4)c3c12,188 to 189 °C
8,Oc1cccc2cnsc12,185 to 187 °C
9,COC(=O)c1[nH]c2c(C)ccc(C)c2c1SC,82 to 85 °C
10,O=c1[nH]c2ccccc2n1OCc1ccccc1,92 to 95 °C
11,CC(=O)C1C(=O)CN(Cc2ccccc2)C1=O (stereo not drawn),74 to 75 °C
12,COc1cc(C=CC(=O)Nc2cnc3ccc(C)cc3c2-c2ccccc2Cl)cc(OC)c1O,235 to 236 °C
13,CCCc1cc2ccccn2c1C(C)=O,71 to 72 °C
14,COc1ccc(-n2ccn([C@H](C)[C@@]3(c4ccc(F)cc4F)CO3)c2=O)cc1,150 to 151 °C
15,C#CC1CCC2(CC1)SCC(C(C)(C)C)CS2 (stereo not drawn),86 to 87 °C
16,COc1ccc([C@@H]2Cc3c(Cl)cccc3NC(=O)[C@@H]2O)cc1,191 to 193 °C
17,COc1ccc(OC)c(CC(=O)c2ccc(C(C)C)c(OS(N)(=O)=O)c2C(C)C)c1,150 to 152 °C
18,COc1ccc(-c2ccc3cnc(Nc4ccc(N5CCN(CC(N)=O)CC5)c(F)c4)nn23)cn1,217 °C
19,N#Cc1nn(-c2c([N+](=O)[O-])cc(C(F)(F)F)cc2[N+](=O)[O-])c(N)c1SC(F)(F)F,214 °C
20,CN1C(=O)C(c2cccc(Br)c2)(c2c[nH]c(C=O)c2)N=C1N (stereo not drawn),142 to 151 °C
21,CN1CCC23CC(=O)CCC2(O)C1Cc1ccccc13 (stereo not drawn),143 to 144 °C
22,COc1ccccc1C(=O)N(C)Cc1cccc(-c2ccc(CC3SC(=O)NC3=O)cc2)c1 (stereo not drawn),96 °C
23,COc1cc2c(cc1C=O)OCC2,82 to 84 °C
24,Cc1cccc(N2CCN(CCc3c(C)nc4ccc(C)cn4c3=O)CC2)c1,115 to 116 °C
